The subject of the assay is r(CUG)12-MBNL1 complex. Put plainly: Inhibition of the r(CUG)12-MBNL1 complex measured by TR-FRET. The conditions noted are these: 80 nM RNA, 60 nM MBNL1-His6. Type of assay: biochemical.

pIC50: −log10 of the molar value. Where only a bound is given, the exact number is not on record here.

Here are results for 47 compounds from US10961202B2, “Bis-benzimidazole compounds and methods of using the same” (THE SCRIPPS RESEARCH INSTITUTE, priority 2017, dated 2021).

Regarding `N=C(N)Nc1ccc(-c2nc3cc(-c4ccc5[nH]c(-c6ccc(NC(=N)N)cc6)nc5c4)ccc3[nH]2)cc1` [Compound 96], for the setting “Table L”, the negative-log IC50 (pIC50) (usually the negative decadic logarithm of the IC50, by convention in mol/L) was 5.34.

Turning to `NC(=O)Nc1ccc(-c2nc3cc(-c4ccc5[nH]c(-c6ccc(NC(N)=O)cc6)nc5c4)ccc3[nH]2)cc1` [Compound 97], the pIC50 (Table L) is 4.15.

For the setting “Table L”, `N=C(NO)c1ccc(-c2nc3cc(-c4ccc5[nH]c(-c6ccc(C(=N)NO)cc6)nc5c4)ccc3[nH]2)cc1` [Compound 98] showed a pIC50 of 3.84.

Take `N=C(N)c1ccc(-c2nc3cc(-c4ccc5[nH]c(-c6ccc(C(=N)N)cc6)nc5c4)ccc3[nH]2)cc1` [Compound 99]: under “Table L”, the pIC50 is 4.82.

Turning to `N#Cc1ccc(-c2nc3cc(-c4ccc5[nH]c(-c6ccc(C#N)cc6)nc5c4)ccc3[nH]2)cc1` [Compound 100], where the note is “Table L”, the pIC50 is 5.21.

For the compound `NC(=O)c1ccc(-c2nc3cc(-c4ccc5[nH]c(-c6ccc(C(N)=O)cc6)nc5c4)ccc3[nH]2)cc1` [Compound 101], the pIC50 (Table L) is less than 3.70.

As for `Brc1ccc(-c2nc3cc(-c4ccc5[nH]c(-c6ccc(Br)cc6)nc5c4)ccc3[nH]2)cc1` [Compound 104], the pIC50 (Table L) was less than 3.70.

In turn, `Oc1ccc(-c2nc3cc(-c4ccc5[nH]c(-c6ccc(O)cc6)nc5c4)ccc3[nH]2)cc1` [Compound 105] had a pIC50 (Table L) of less than 3.70.

Take `COc1ccc(-c2nc3cc(-c4ccc5[nH]c(-c6ccc(OC)cc6)nc5c4)ccc3[nH]2)cc1` [Compound 106]: under “Table L”, the pIC50 is less than 3.70.

Where the note is “Table L”, `c1cn(-c2ccc(-c3nc4cc(-c5ccc6[nH]c(-c7ccc(-n8ccnc8)cc7)nc6c5)ccc4[nH]3)cc2)cn1` [Compound 107] gave a pIC50 of less than 3.70.

`CN(C)CCNC(=O)c1ccc(-c2nc3cc(-c4ccc5[nH]c(-c6ccc(C#N)cc6)nc5c4)ccc3[nH]2)cc1` [Compound 109]: the pIC50 (Table L) was 4.82.

As for `CNCCNC(=O)c1ccc(-c2nc3cc(-c4ccc5[nH]c(-c6ccc(C(=O)NCCN(C)C)cc6)nc5c4)ccc3[nH]2)cc1` [Compound 110, N-(2-(dimethylamino)ethyl)-4-(2′-(4-((2-(methylamino)ethyl)carbamoyl)phenyl)-1H,1′H-[5,5′-bibenzo[d]imidazol]-2-yl)benzamide], the pIC50 (Table L) was 5.16.

The compound `CNCCNC(=O)c1ccc(-c2nc3cc(-c4ccc5[nH]c(-c6ccc(C(=O)NCCNC)cc6)nc5c4)ccc3[nH]2)cc1` [Compound 111, 4,4′-(1H,1′H-[5,5′-bibenzo[d]imidazole]-2,2′-diyl)bis(N-(2-(methylamino)ethyl)benzamide)] gave a pIC50 (Table L) of 5.16.

`C#CCCCCN(C)CCNC(=O)c1ccc(-c2nc3cc(-c4ccc5[nH]c(-c6ccc(C(=O)NCCN(C)C)cc6)nc5c4)ccc3[nH]2)cc1` [Compound 114, N-(2-(dimethylamino)ethyl)-4-(2′-(4-((2-(hex-5-yn-1-yl(methyl)amino)ethyl)carbamoyl)phenyl)-1H,1′H-[5,5′-bibenzo[d]imidazol]-2-yl)benzamide] gave a pIC50 (Table L) of 5.02. The pIC50 values of the last two compounds are within 0.2 log units of each other.

The compound `CN1CCN(CCNC(=O)c2ccc(-c3nc4cc(-c5ccc6[nH]c(-c7ccc(C(=O)NCCN8CCN(C)CC8)cc7)nc6c5)ccc4[nH]3)cc2)CC1` [Compound 117] had a pIC50 (Table L) of 5.05.

Where the note is “Table L”, `N#Cc1cccc(-c2nc3cc(-c4ccc5[nH]c(-c6cccc(C#N)c6)nc5c4)ccc3[nH]2)c1` [Compound 120] had a pIC50 of less than 3.70.

`Cn1c(-c2ccc(N)cc2)nc2cc(-c3ccc4nc(-c5ccc(N)cc5)n(C)c4c3)ccc21` [Compound 121, 1,3′-dimethyl-2,2′-bis(4-aminophenyl)-1H,3′H-5,5′-bibenzimidazole] had a pIC50 (Table L) of less than 3.70.

For `Cn1c(-c2ccc(N)cc2)nc2cc(-c3ccc4c(c3)nc(-c3ccc(N)cc3)n4C)ccc21` [Compound 122, 1,1′-dimethyl-2,2′-bis(4-aminophenyl)-1H,1′H-5,5′-bibenzimidazole], the pIC50 (Table L) is 4.62.

Regarding `NC(=O)Cc1ccc(-c2nc3cc(-c4ccc5[nH]c(-c6ccc(CC(N)=O)cc6)nc5c4)ccc3[nH]2)cc1` [Compound 124, 2,2′-(1H,1′H-[5,5′-bibenzo[d]imidazole]-2,2′-diylbis(4,1-phenylene))diacetamide], for the setting “Table L”, the pIC50 was 3.77.

For the setting “Table L”, `CC(C)(C)OC(=O)N1CCN(CCNC(=O)c2ccc3nc(-c4ccc(-c5nc6ccc(C(=O)NCCN7CCCCC7)cc6[nH]5)cc4)[nH]c3c2)CC1` [Compound 125] gave a pIC50 of 4.59.

In turn, `c1cc(-c2nc3cc(-c4ccc5[nH]c(-c6ccc(CN7CCCC7)cc6)nc5c4)ccc3[nH]2)ccc1CN1CCCC1` [Compound 127, 2,2′-bis(4-(pyrrolidin-1-ylmethyl)phenyl)-1H,1′H-5,5′-bibenzo[d]imidazole] gave a pIC50 (Table L) of 4.56.

The compound `N=C(N)Nc1cccc(-c2nc3cc(-c4ccc5nc(-c6cccc(N)c6)[nH]c5c4)ccc3[nH]2)c1` [Compound 166] gave a negative logarithm of the IC50 (pIC50) (Table L) of 4.34. This pIC50 is 0.22 log units lower than that of the compound before.

Take `N=C(N)Nc1ccc(-c2nc3cc(-c4ccc5[nH]c(-c6ccc(N)cc6)nc5c4)ccc3[nH]2)cc1` [Compound 167]: the pIC50 (Table L) is 4.26.

`NCC(=O)NCC(=O)NCc1cn(CCN2CCN(CCNC(=O)c3ccc4nc(-c5ccc(-c6nc7ccc(C(=O)NCCN8CCCCC8)cc7[nH]6)cc5)[nH]c4c3)CC2)nn1` [Compound 178, N-(2-(4-(2-(4-((2-(2-aminoacetamido)acetamido)methyl)-1H-1,2,3-triazol-1-yl)ethyl)piperazin-1-yl)ethyl)-2-(4-(6-((2-(piperidin-1-yl)ethyl)carbamoyl)-1H-benzo[d]imidazol-2-yl)phenyl)-1H-benzo[d]imidazole-6-carboxamide] showed a pIC50 (Table M) of 5.10.

For the setting “Table M”, `CN(C)CCOCCOc1ccc2nc(-c3ccc(-c4nc5ccc(OCCOCCN(C)C)cc5[nH]4)cc3)[nH]c2c1` [Compound 179, 2,2′-((((1,4-phenylenebis(1H-benzo[d]imidazole-2,6-diyl))bis(oxy))bis(ethane-2,1-diyl))bis(oxy))bis(N,N-dimethylethan-1-amine)] showed a pIC50 of 3.72.

Under “Table M”, `CN(C)CC(C)(C)COc1ccc2nc(-c3ccc(-c4nc5ccc(OCC(C)(C)CN(C)C)cc5[nH]4)cc3)[nH]c2c1` [Compound 180] gave a pIC50 of 4.10. Against the preceding compound, the pIC50 is 0.38 log units higher.

As for `CN1CC[C@@H](Oc2ccc3nc(-c4ccc(-c5nc6ccc(O[C@@H]7CCN(C)C7)cc6[nH]5)cc4)[nH]c3c2)C1` [Compound 181], the pIC50 (Table M) is 4.26. The pIC50 values of the last two compounds are within 0.2 log units of each other.

Regarding `CN1CC[C@@H](Oc2ccc3nc(-c4ccc(-c5nc6ccc(O)cc6[nH]5)cc4)[nH]c3c2)C1` [Compound 182], the pIC50 (Table M) is 4.03.

For the compound `CN1C(C)(C)CC(Oc2ccc3nc(-c4ccc(-c5nc6ccc(OC7CC(C)(C)N(C)C(C)(C)C7)cc6[nH]5)cc4)[nH]c3c2)CC1(C)C` [Compound 183, 1,4-bis(6-((1,2,2,6,6-pentamethylpiperidin-4-yl)oxy)-1H-benzo[d]imidazol-2-yl)benzene], the pIC50 (Table M) was 3.94. This pIC50 and that of the compound before are within 0.2 log units of each other.

Under “Table M”, `CN(C)CC(CN(C)C)Oc1ccc2nc(-c3ccc(-c4nc5ccc(OC(CN(C)C)CN(C)C)cc5[nH]4)cc3)[nH]c2c1` [Compound 184] showed a pIC50 of less than 3.70.

`c1cc2nc(-c3ccc(-c4nc5ccc(OCCN6CCOCC6)cc5[nH]4)cc3)[nH]c2cc1OCCN1CCOCC1` [Compound 186] showed a pIC50 (Table M) of less than 3.70.

`CCN(CC)CCCOc1ccc2nc(-c3ccc(-c4nc5ccc(OCCCN(CC)CC)cc5[nH]4)cc3)[nH]c2c1` [Compound 187]: the pIC50 (Table M) was 4.23.

As for `CCN(CC)CCCOc1ccc2nc(-c3ccc(-c4nc5ccc(O)cc5[nH]4)cc3)[nH]c2c1` [Compound 188], the pIC50 (Table M) was 4.33.

Take `COc1ccc2nc(-c3ccc(-c4nc5ccc(OC)cc5[nH]4)cc3)[nH]c2c1` [Compound 189, 1,4-Bis(6-methoxy-1H-benzo[d]imidazol-2-yl)benzene]: the pIC50 (Table M) was less than 3.70.

In the case of `Oc1ccc2nc(-c3ccc(-c4nc5ccc(O)cc5[nH]4)cc3)[nH]c2c1` [Compound 190, 2,2′-(1,4-phenylene)bis(1H-benzo[d]imidazol-6-ol)], for the setting “Table M”, the pIC50 was 3.75.

`c1cc2nc(-c3ccc(-c4nc5ccc(OCCN6CCCCC6)cc5[nH]4)cc3)[nH]c2cc1OCCN1CCCCC1` [Compound 191] had a pIC50 (Table M) of 4.00.

Compound `CN(C)CCCCCOc1ccc2nc(-c3ccc(-c4nc5ccc(O)cc5[nH]4)cc3)[nH]c2c1` [Compound 193] showed a pIC50 (Table M) of 4.44.

For the compound `CN1CCC(COc2ccc3nc(-c4ccc(-c5nc6ccc(O)cc6[nH]5)cc4)[nH]c3c2)CC1` [Compound 194, 2-(4-(6-((1-methylpiperidin-4-yl)methoxy)-1H-benzo[d]imidazol-2-yl)phenyl)-1H-benzo[d]imidazol-6-ol], the pIC50 (Table M) was 4.41.

Under “Table M”, `Oc1ccc2nc(-c3ccc(-c4nc5ccc(OCCN6CCCCC6)cc5[nH]4)cc3)[nH]c2c1` [Compound 195] showed a pIC50 of 3.98. This pIC50 is 0.43 log units lower than that of the compound before.

`CN1CCC[C@H]1COc1ccc2nc(-c3ccc(-c4nc5ccc(O)cc5[nH]4)cc3)[nH]c2c1` [Compound 196] gave a pIC50 (Table M) of 3.98.

Turning to `CN(C)CCCCOc1ccc2nc(-c3ccc(-c4nc5ccc(OCCCCN(C)C)cc5[nH]4)cc3)[nH]c2c1` [Compound 197, 4,4′-((1,4-phenylenebis(1H-benzo[d]imidazole-2,6-diyl))bis(oxy))bis(N,N-dimethylbutan-1-amine)], the pIC50 (Table M) is 4.47.

Under “Table M”, `CN1CCC[C@H]1COc1ccc2nc(-c3ccc(-c4nc5ccc(OC[C@@H]6CCCN6C)cc5[nH]4)cc3)[nH]c2c1` [Compound 199] gave a pIC50 of 4.32.

`CN(C)CCCCOc1ccc2nc(-c3ccc(-c4nc5ccc(O)cc5[nH]4)cc3)[nH]c2c1` [Compound 200, 2-(4-(6-(4-(dimethylamino)butoxy)-1H-benzo[d]imidazol-2-yl)phenyl)-1H-benzo[d]imidazol-6-ol] gave a pIC50 (Table M) of 4.49.

Where the note is “Table M”, `c1cc2nc(-c3ccc(-c4nc5ccc(OCCN6CCCC6)cc5[nH]4)cc3)[nH]c2cc1OCCN1CCCC1` [Compound 203] showed a pIC50 of 3.99.

Compound `Oc1ccc2nc(-c3ccc(-c4nc5ccc(OCCN6CCCC6)cc5[nH]4)cc3)[nH]c2c1` [Compound 204] had a pIC50 (Table M) of 3.89.

`CC(=O)NCCN1CCN(CCNC(=O)c2ccc3nc(-c4ccc(-c5nc6ccc(C(=O)NCCN7CCCCC7)cc6[nH]5)cc4)[nH]c3c2)CC1` [Compound 206]: under “Table M”, the pIC50 is 4.19.

Regarding `CN(C)CCCSCCOc1ccc2nc(-c3ccc(-c4nc5ccc(OCCSCCCN(C)C)cc5[nH]4)cc3)[nH]c2c1` [Compound 207], the negative logarithm of the IC50 (pIC50) (Table M) was 4.31.
